Test results as given in patent publication US20170003277A1 (priority 2015, published 2017).

Key:
[1] = cited from earlier work
[2] = system: mouse splenocytes, THP-1 human monocyte cell line, PBMCs from MS patients; test: Integrated analysis of genes modulated by Copaxone across mouse splenocytes, THP-1 human monocytes and MS patient PBMCs; settings: human monocytes
Description: Genome-wide expression profiles in cells from three different datasets in two different species (human, mouse) were studied. LIMMA was utilized to identify a genome-wide list of differentially expressed genes induced by GA in the primed and ex vivo stimulated mouse splenocytes, as well as in the THP-1 human monocyte cell line. Repeated-measures ANOVA was utilized to find a genome-wide list of genes modulated by GA in treated MS patients. Advanced enrichment algorithms were then applied to elucidate the pathways and cell types modulated by GA.
The genes modulated by GA treatment in multiple studies were examined for enrichment in particular immunological cell types.

[3] = system: THP-1 human monocyte cell line; test: Pathway enrichment (DAVID) in THP-1 study: Copaxone vs mannitol and Probioglat vs GA; assay type: cell-based; settings: Copaxone vs mannitol, 6 hours

Substance: glatiramer acetate [Copaxone®]
- Adverse events leading to discontinuation ([1]; GATE study arm): 5
- Effect on annualized relapse rate (ARR) ([1]; GATE study, Copaxone arm (357) vs Placebo (84)): no effect in reducing ARR
- IL-10 gene expression in all 3 systems [2]: Upregulated expression
- Number of genes modulated significantly by GA in all three studies [2]: 39
- Fold Enrichment: GO: 0003006~reproductive developmental process ([3]; top downregulated genes): 6.25
- Fold Enrichment: GO: 0007275~multicellular organismal development ([3]; top downregulated genes): 2.168
- Fold Enrichment: GO: 0009653~anatomical structure morphogenesis ([3]; top downregulated genes): 2.643
- Fold Enrichment: GO: 0030154~cell differentiation ([3]; top downregulated genes): 2.556
- Fold Enrichment: GO: 0032502~developmental process ([3]; top downregulated genes): 1.984
- Fold Enrichment: GO: 0048513~organ development ([3]; top downregulated genes): 2.76
- Fold Enrichment: GO: 0048731~system development ([3]; top downregulated genes): 2.396
- Fold Enrichment: GO: 0048856~anatomical structure development ([3]; top downregulated genes): 2.165
- Fold Enrichment: GO: 0048869~cellular developmental process ([3]; top downregulated genes): 2.411
- Fold Enrichment: G0: 0001568~blood vessel development ([3]; top upregulated genes): 3.472
- Fold Enrichment: G0: 0002819~regulation of adaptive immune response ([3]; top upregulated genes): 7.067
- Fold Enrichment: G0: 0030154~cell differentiation ([3]; top upregulated genes): 1.794
- Fold Enrichment: GO: 0000267~cell fraction ([3]; top upregulated genes): 1.993
- Fold Enrichment: GO: 0001501~skeletal system development ([3]; top upregulated genes): 3.144
- Fold Enrichment: GO: 0001525~angiogenesis ([3]; top upregulated genes): 4.224
- Fold Enrichment: GO: 0001608~nucleotide receptor activity, G-protein coupled ([3]; top upregulated genes): 13.87
- Fold Enrichment: GO: 0001614~purinergic nucleotide receptor ([3]; top upregulated genes): 12.55
- Fold Enrichment: GO: 001816~cytokine production ([3]; top upregulated genes): 7.526
- Fold Enrichment: GO: 0001871~pattern binding ([3]; top upregulated genes): 5.244
- Fold Enrichment: GO: 0001944~vasculature development ([3]; top upregulated genes): 3.428
- Fold Enrichment: GO: 0002376~immune system process ([3]; top upregulated genes): 2.852
- Fold Enrichment: GO: 0002682~regulation of immune system process ([3]; top upregulated genes): 3.763
- Fold Enrichment: GO: 0002683~negative regulation of immune ([3]; top upregulated genes): 5.682
- Fold Enrichment: GO: 0002684~positive regulation of immune system process ([3]; top upregulated genes): 4.025
- Fold Enrichment: GO: 0002694~regulation of leukocyte activation ([3]; top upregulated genes): 4.14
- Fold Enrichment: GO: 0002697~regulation of immune effector process ([3]; top upregulated genes): 6.009
- Fold Enrichment: GO: 0002698~negative regulation of immune effector process ([3]; top upregulated genes): 15.05
- Fold Enrichment: GO: 0002698~positive regulation of response to external stimulus ([3]; top upregulated genes): 6.536
- Fold Enrichment: GO: 0002703~regulation of leukocyte mediated immunity ([3]; top upregulated genes): 7.43
- Fold Enrichment: GO: 0002822~regulation of adaptive immune response based on somatic recombination of immune receptors built from immunoglobulin superfamily domains ([3]; top upregulated genes): 7.244
- Fold Enrichment: GO: 0004222~metalloendopeptidase activity ([3]; top upregulated genes): 6.148
- Fold Enrichment: GO: 0004871~signal transducer activity ([3]; top upregulated genes): 2.537
- Fold Enrichment: GO: 0004872~receptor activity ([3]; top upregulated genes): 2.976
- Fold Enrichment: GO: 0004888~transmembrane receptor activity ([3]; top upregulated genes): 3.768
- Fold Enrichment: GO: 0004930~G-protein coupled receptor activity ([3]; top upregulated genes): 4.293
- Fold Enrichment: GO: 0005576~extracellular region ([3]; top upregulated genes): 2.824
- Fold Enrichment: GO: 0005578~proteinaceous extracellular matrix ([3]; top upregulated genes): 5.31
- Fold Enrichment: GO: 0005615~extracellular space ([3]; top upregulated genes): 3.371
- Fold Enrichment: GO: 0005624~membrane fraction ([3]; top upregulated genes): 2.128
- Fold Enrichment: GO: 0005626~insoluble friction ([3]; top upregulated genes): 2.12
- Fold Enrichment: GO: 0005886~plasma membrane ([3]; top upregulated genes): 2.42
- Fold Enrichment: GO: 0005887~integral to plasma membrane ([3]; top upregulated genes): 3.25
- Fold Enrichment: GO: 0006928~cell motion ([3]; top upregulated genes): 2.469
- Fold Enrichment: GO: 0006935~chemotaxis ([3]; top upregulated genes): 4.651
- Fold Enrichment: GO: 0006950~response to stress ([3]; top upregulated genes): 1.897
- Fold Enrichment: GO: 0006952~defense response ([3]; top upregulated genes): 3.418
- Fold Enrichment: GO: 0006954~inflammatory response ([3]; top upregulated genes): 4.475
- Fold Enrichment: GO: 0006955~immune response ([3]; top upregulated genes): 3.57
- Fold Enrichment: GO: 0007155~cell adhesion ([3]; top upregulated genes): 2.948
- Fold Enrichment: GO: 0007165~signal transduction ([3]; top upregulated genes): 1.567
- Fold Enrichment: GO: 0007166~cell surface receptor linked signal transduction ([3]; top upregulated genes): 2.246
- Fold Enrichment: GO: 0007186~G-protein coupled receptor protein signaling pathway ([3]; top upregulated genes): 2.726
- Fold Enrichment: GO: 0007275~multicellular organismal development ([3]; top upregulated genes): 1.742
- Fold Enrichment: GO: 0007610~behavior ([3]; top upregulated genes): 2.76
- Fold Enrichment: GO: 0007626~locomotory behavior ([3]; top upregulated genes): 4.081
- Fold Enrichment: GO: 0009605~response to external stimulus ([3]; top upregulated genes): 3.127
- Fold Enrichment: GO: 0009607~response to biotic stimulus ([3]; top upregulated genes): 3.376
- Fold Enrichment: GO: 0009611~response to wounding ([3]; top upregulated genes): 4.097
- Fold Enrichment: GO: 0009617~response to bacterium ([3]; top upregulated genes): 4.268
- Fold Enrichment: GO: 0009897~external side of plasma membrane ([3]; top upregulated genes): 6.497
- Fold Enrichment: GO: 0009986~cell surface ([3]; top upregulated genes): 4.067
